Data from patent US8865901B2, “Gain-of-function Bcl-2 inhibitors” (priority 2009, dated 2014).
Like-named read-outs stand apart in the source and are kept apart here.

Key:
[1] = tested on: H23, NSCLC tumor; experiment: Apoptosis induction against solid tumors in vitro, H23; format: cell-based
Protocol: (§1) The ability of compounds from Example 2 to induce apoptosis against solid tumors in vitro was tested. Four solid tumors were tested: OVCAR-3, an ovarian tumor; COLO205, a colonic tumor; HOP-62 and H23, both NSCLC tumors. The experimental compounds were compared to 2MeAA and to ABT-737, a clinical stage compound owned by Abbott Pharma.
(§2) The ability of compounds of Example 8 to induce apoptosis against solid tumors in vitro was tested. Four solid tumors were tested: OVCAR-3, an ovarian tumor; COLO205, a colonic tumor; HOP-62 and H23, both NSCLC tumors. The experimental compounds, […]

[2] = tested on: HOP-62, NSCLC tumor; experiment: Apoptosis induction against solid tumors in vitro, HOP-62; format: cell-based
Protocol: as §1, §2

[3] = tested on: TAMH cells overexpressing Bcl-xL (TAMH-Bcl-xL, Tabx2s); experiment: Cytotoxicity / apoptosis induction in TAMH cells overexpressing Bcl-xL; format: cell-based; conditions: for Neo:Bcl: ratio Neo to Bcl-xL cells; for Fold Select. (Neo/Bcl-XL) / IC50: Table 10; for IC50: read-out: IC50 TAMH Bcl-XL
Protocol: (§3) To examine the sensitivity of cells over-expressing Bcl-xL to various mitochondrial inhibitors and apoptosis inducers, cell lines over-expressing Bcl-xL were prepared and tested according to Hockenberry et al. U.S. Pat. No. 7,241,804, hereby incorporated by reference in its entirety. Competitive binding of compounds with fluorescent antimycin A3, and competitive binding of compounds with BH3 peptide and Bcl-2. Competitive binding of compounds with BH-3 peptide were also measured using Bcl-xL as previously described. Id.
(§4) Cell lines were grown in RPMI 1640 medium (Gibco, Grand Island, N.Y.) supplemented with 5% fetal bovine serum (Hyclone, Logan, Utah). Also shown is the ratio of TAMH cells expressing Bcl-xL to those expressing A142L (WT:142L). The assay measures the potency of various compounds with respect to inducing apoptosis in these cells.
(§5) The compounds described in Example 2 were tested for their ability to inhibit Bcl-2 gain-of-function in TAMH cells, TAMH cells overexpressing […] (TAMH-Bcl-xL), TAMH cells transfected with Neo vector (Neo), TAMH cells over expressing a variant of Bcl-xL (A142L) using the methods of Example 1. 3-6.
(§6) The effects of the compounds described in Example 8 on TAMH cells, TAMH cells overexpressing Bcl-xL (TAMH-Bcl-xL), TAMH cells transfected with Neo vector (Neo), TAMH cells over expressing a variant of Bcl-xL (A142L) is shown in Table 8
(§7) The effects of the compounds described in Example 10 on TAMH cells, TAMH cells overexpressing Bcl-xL (TAMH-Bcl-xL), TAMH cells transfected with Neo vector (Neo), TAMH cells over expressing a variant of Bcl-xL (A142L) is shown in the following Table 10

[4] = tested on: TAMH cells over expressing a variant of Bcl-xL (A142L); experiment: Cytotoxicity / apoptosis induction in TAMH cells over expressing Bcl-xL variant A142L; format: cell-based; conditions: Table 4; for EC50: TAMH A142L cells; for WT:142L: ratio of TAMH cells expressing Bcl-xL to those expressing A142L
Protocol: as §3, §4, §5

[5] = tested on: COLO205, a colonic tumor; experiment: Apoptosis induction against solid tumors in vitro, COLO205; format: cell-based
Protocol: as §1, §2

[6] = tested on: TAMH cells transfected with Neo vector (Neo); experiment: Cytotoxicity / apoptosis induction in TAMH cells transfected with Neo vector; format: cell-based; conditions: for IC50: Table 10, read-out: IC50 TAMH Neo
Protocol: as §3, §4, §5, §6, §7

[7] = tested on: OVCAR-3, an ovarian tumor; experiment: Apoptosis induction against solid tumors in vitro, OVCAR-3; format: cell-based; conditions: Table 7
Protocol: as §1, §2

[8] = Log P
[9] = Table 4, TAMH-Bcl-xL cells, read-out: Bcl-xL
[10] = Table 4, TAMH Neo cells, read-out: Neo
[11] = Table 3, TAMH cells overexpressing Bcl-xL (Tabx2s), read-out: 2S EC50
[12] = Table 3, TAMH Neo cells, read-out: Neo EC50
[13] = Table 5, TAMH cells overexpressing Bcl-xL (Tabx2s), read-out: 2S EC50
[14] = Table 5, TAMH Neo cells, read-out: Neo EC50

With O=[N+]([O-])c1cccc(/C=N/Nc2ccccn2)c1O [Compound 0208] the EC50 ([1]; Table 7) was 8.2 µM, the EC50 ([2]; Table 7) was 17.5 µM and the EC50 [3, 9] was 4.4 µM. For the same molecule, the “Neo:Bcl” value ([3]; Table 4) was 5.7, the EC50 [4] was 9.7 µM and the “WT:142L” value [4] was 2.2. For the same molecule, the EC50 ([5]; Table 7) was 9.2 µM, the EC50 [6, 10] was > 25 µM and the EC50 [7] was 3.8 µM.
In the case of O=C(/N=C/c1cc(Br)cc(Br)c1O)c1ccc(C(F)(F)F)cn1 [Compound 0298], the EC50 [3, 11] is reported as 2.3 µM and the EC50 [6, 12] is reported as 13 µM.
In the case of Cc1c(Cl)cc(C(C)(C)C)c(O)c1Cc1c(C)c(Cl)cc(C(C)(C)C)c1O [Compound 5857], the “Fold Select. (Neo/Bcl-XL)” value [3] is reported as 2.8, the IC50 [3] is reported as 4.5 µM and the IC50 [6] is reported as 12.5 µM.
Molecule CC(C)(C)c1ccc(Cc2ccc(Cl)cc2Cl)cc1 [Compound 0149] has an EC50 ([3]; Mus musculus, Table 6, TAMH cells overexpressing Bcl-xL (Tabx2s), read-out: 2S EC50) of 1.1 µM, an EC50 ([6]; Mus musculus, Table 6, TAMH Neo cells, read-out: Neo EC50) of 9.2 µM and a logP [8] of 6.28.
In the case of CCc1cc(Cc2cc(CC)cc(C(C)(C)C)c2O)c(O)c(C(C)(C)C)c1 [Compound 7782], the “Fold Select. (Neo/Bcl-XL)” value [3] is reported as 1.7, the IC50 [3] is reported as 2.1 µM and the IC50 [6] is reported as 3.5 µM.
Molecule CN(Cc1cc(Br)cc(Br)c1O)Cc1c(O)ccc2ccccc12 [Compound 88852] has a Neo/Bcl-XL ([3]; Table 18) of 5.8, an EC50 ([3]; Table 18, read-out: Bcl-XL) of 3.7 µM and an EC50 ([6]; Table 18, read-out: Neo) of 21.5 µM.
With Oc1ccc(Cl)cc1/C=N/Nc1ccc(C(F)(F)F)cn1 [Compound 0231] the EC50 [3, 11] was 2.1 µM, the EC50 [6, 12] was ≥ 50 µM and the “Log P” value ([8]; Table 3) was 3.560.
Molecule CN(Cc1cc(Cl)cc(Cl)c1O)Cc1c(O)ccc2ccccc12 [Compound 85479] has a Neo/Bcl-XL ([3]; Table 18) of 5.8, an EC50 ([3]; Table 18, read-out: Bcl-XL) of 2.5 µM and an EC50 ([6]; Table 18, read-out: Neo) of 14.5 µM.
With Oc1c(Br)cc(Cl)cc1/C=N/Nc1ccc(C(F)(F)F)cn1 [Compound 0275] the EC50 [3, 11] was 1.4 µM, the EC50 [6, 12] was 9.9 µM and the “Log P” value ([8]; Table 3) was 4.980.
In the case of COc1cc(O)c(/C=N/Nc2ccccn2)cc1Br [Compound 0351], the EC50 [3, 11] is reported as 2.6 µM, the EC50 [3, 9] is reported as > 25 µM and the “Neo:Bcl” value ([3]; Table 4) is reported as 1. The EC50 [4] was > 25 µM, the “WT:142L” value [4] was 1 and the EC50 [6, 12] was ≥ 50 µM. For the same molecule, the EC50 [6, 10] was > 25 µM and the “Log P” value ([8]; Table 3) was 3.03.
With O=S(=O)(c1cc(Br)ccc1O)c1cc(Br)ccc1O [Compound 1050] the “Fold Select. (Neo/Bcl-XL)” value [3] was 2.8, the IC50 [3] was 3.8 µM and the IC50 [6] was 10.5 µM.
For Cc1cc(Cl)cc(Cc2cc(Cl)cc(C)c2O)c1O [Compound 77122], the “Fold Select. (Neo/Bcl-XL)” value [3] was 3.3, the IC50 [3] was 2 µM and the IC50 [6] was 6.6 µM.
For CN(C)CC[C@H](CSc1ccccc1)Nc1ccc(S(=O)(=O)NC(=O)c2ccc(N3CCN(Cc4ccccc4-c4ccc(Cl)cc4)CC3)cc2)cc1[N+](=O)[O-] [ABT-737, reference compound], the EC50 ([1]; Homo sapiens, NCI-H23, Table 7) was > 25 µM, the EC50 ([1]; Table 21) was > 25 µM and the EC50 ([2]; Homo sapiens, Table 7) was > 25 µM. The EC50 ([2]; Table 21) was > 25 µM, the EC50 ([5]; Homo sapiens, COLO 205, Table 7) was > 25 µM and the EC50 ([5]; Table 21) was > 25 µM. It also gave an EC50 ([7]; Homo sapiens) of 17 µM.
In the case of COc1ccc(Cl)cc1Cc1cc(Cl)cc(Cc2cc(Cl)ccc2O)c1OC [Compound 0088], the EC50 [3, 13] is reported as 0.6 µM, the EC50 [6, 14] is reported as 6.1 µM and the “Log P” value ([8]; Table 5) is reported as 7.4.
In the case of Oc1ccc(Cl)cc1/C=N/Nc1ccccn1 [Compound 0229], the EC50 [3, 11] is reported as 2.4 µM, the EC50 [6, 12] is reported as ≥ 50 µM and the “Log P” value ([8]; Table 3) is reported as 2.570.
In the case of O=C(c1cc(Br)ccc1O)c1cc(Br)ccc1O [Compound 4631], the “Fold Select. (Neo/Bcl-XL)” value [3] is reported as 1.7, the IC50 [3] is reported as 8.5 µM and the IC50 [6] is reported as 14 µM.
With CC(C)(C)c1ccc(Cc2ccc(Oc3ccccc3)cc2O)cc1 [Compound 0155] the EC50 [3, 13] was 1.9 µM, the EC50 [6, 14] was 12 µM and the “Log P” value ([8]; Table 5) was 7.24.
In the case of Oc1ccc(Br)cc1/C=N/Nc1ccccn1 [Compound 0241], the EC50 [3, 11] is reported as 0.2 µM, the EC50 [6, 12] is reported as ≥ 50 µM and the “Log P” value ([8]; Table 3) is reported as 2.740.
